We go through one compound from article PMC8968952, “Modulation of ERCC1-XPF Heterodimerization Inhibition via Structural Modification of Small Molecule Inhibitor Side-Chains” (Frontiers in Oncology, 2022).

The subject of data set [1] is ERCC1 or XPF levels in A549 cells. As to the kind of experiment: Western blot of ERCC1 and XPF protein levels (PLA control). In kind it is cell-based, human. The settings on record: 2 µM, 24 h. As for the experimental part: page 1: Supplementary Material […] Supplementary Figure 1. ERCC1-XPF mediated cleavage of the stem-loop DNA substrate, in which the FAM signal is quenched, releases the fluorescently tagged octanucleotide. Triplicate measurements of the control (DMSO) and the effect of 10 μM of compounds 4 and 6 on the incision activity is shown. 2 PLA Control Experiments Supplementary Figure 2. A549 cells were seeded in 6-well culture dishes (Thermo Fishes Scientific) at a density of 0.3 X 10^6 cells/well in a final volume of 3 ml. […] The chambers were incubated for 24 h and then washed with PBS and the cells were solubilized with RIPA buffer in the presence of protease inhibitor cocktail (Cell Signaling Technology) plus 2 mM EDTA. […] EpiGentek), XPF (LS- C173159, 1:1000; LifeSpan BioSciences, Seattle, WA) and B-Actin (sc-47778, 1:1000; Santa Cruz) primary antibodies followed by secondary anti-mouse or anti-rabbit secondary HRP-conjugated secondary antibodies. ECL chemiluminescent substrate (Promega) was used to detect the proteins. 3 Cytotoxicity Analysis Supplementary Figure 3. Cytotoxicity assay using colony forming assay 4 HCT-116 Derived XPF Knockout Cells For CRISPR deletion of XPF from HCT-116 cells, the pSpCas9(BB)-2A-GFP (pX458) vector (Addgene plasmid # 48138) was used. The short guide sequence to target XPF exon one was: 5'- [NT] 3' and target XPF exon eight was: 5'- [NT]3'. […]

The nature of data set [2]: Metabolic stability in cryopreserved human hepatocytes. In kind it is in vitro ADME. As for the experimental part: (§1) The ADME (absorption, distribution, metabolism, and excretion) profile of our lead compound 6 was determined by standard protocols carried out by WuXi AppTec (Shanghai) Co (https://www.wuxiapptec.com/). The following tests were conducted: distribution coefficient (log D at pH 7.4), aqueous solubility (Kinetic), metabolic stability in human liver microsomes and cryopreserved human hepatocytes, bidirectional permeability in Caco-2 cells, serum protein binding, and cytochrome P450 (CYP) inhibition (CYP1A2, CYP2C9, CYP2C19, CYP2D6, and CYP3A4-M).

In the next data set the target is CYP2C9 (Homo sapiens, UniProt P11712). As to the kind of experiment: Cytochrome P450 inhibition, CYP2C9. The format is in vitro ADME. As for the experimental part:
as §1

The next data set addresses T1, CYP1A2 (Homo sapiens, UniProt P05177).
T1 sequence (P05177 1-516): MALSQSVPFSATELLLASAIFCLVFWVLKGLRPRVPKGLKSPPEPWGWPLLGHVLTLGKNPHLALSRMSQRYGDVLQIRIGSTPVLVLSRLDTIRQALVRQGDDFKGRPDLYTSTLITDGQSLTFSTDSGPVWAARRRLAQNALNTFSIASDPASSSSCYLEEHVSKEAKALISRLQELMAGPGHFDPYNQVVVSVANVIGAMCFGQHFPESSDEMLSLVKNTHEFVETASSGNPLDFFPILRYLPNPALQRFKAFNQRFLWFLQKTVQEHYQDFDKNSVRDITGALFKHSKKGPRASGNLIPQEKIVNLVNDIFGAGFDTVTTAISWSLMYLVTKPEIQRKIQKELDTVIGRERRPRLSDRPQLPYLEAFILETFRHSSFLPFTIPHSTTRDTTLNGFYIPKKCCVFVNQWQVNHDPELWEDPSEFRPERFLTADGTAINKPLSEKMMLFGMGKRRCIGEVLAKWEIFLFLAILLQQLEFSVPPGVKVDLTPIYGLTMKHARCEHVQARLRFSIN
As to the kind of experiment: Cytochrome P450 inhibition, CYP1A2. In kind it is in vitro ADME. The procedure: as §1

For orientation: IC50 means the midpoint of a concentration-inhibition curve. Lower therefore signals greater potency.

Chain of CYP2C9 (P11712 whole entry): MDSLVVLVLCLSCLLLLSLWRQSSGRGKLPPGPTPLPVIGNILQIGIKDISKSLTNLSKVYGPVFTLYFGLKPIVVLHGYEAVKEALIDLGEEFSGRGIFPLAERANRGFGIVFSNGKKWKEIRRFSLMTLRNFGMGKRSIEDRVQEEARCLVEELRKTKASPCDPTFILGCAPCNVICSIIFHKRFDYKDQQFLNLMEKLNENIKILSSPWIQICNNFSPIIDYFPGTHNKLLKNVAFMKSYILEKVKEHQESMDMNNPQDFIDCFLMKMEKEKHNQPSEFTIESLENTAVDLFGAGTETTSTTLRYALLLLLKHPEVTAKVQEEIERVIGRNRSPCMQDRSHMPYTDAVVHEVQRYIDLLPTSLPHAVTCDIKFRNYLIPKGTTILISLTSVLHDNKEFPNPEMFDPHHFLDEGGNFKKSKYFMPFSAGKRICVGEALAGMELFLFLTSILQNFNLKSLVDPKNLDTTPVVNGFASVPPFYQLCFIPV

As for `COc1ccc2nc3cc(Cl)ccc3c(Nc3ccc(O)c(CN4CCN(CCN(C(C)C)C(C)C)CC4)c3)c2c1` [Compound 6], the “levels of ERCC1 or XPF vs untreated cells” value in data set [1] was “no significant differences”. Besides, the “metabolic stability grade, hepatocyte assay (in words)” value in data set [2] is recorded as “low to moderate metabolic stability”. Moreover, in data set [2] (human, cryopreserved hepatocytes, read-out: Metabolic stability in cryopreserved human hepatocytes (clearance)), the CLint scaled is 33.5 mL/min/kg. For the same compound, in data set [2] (human, cryopreserved hepatocytes, read-out: Metabolic stability in cryopreserved human hepatocytes T1/2), the half-life came to 1.92 h. Further, at CYP2C9, the “CYP2C9 inhibition grade (in words)” value is reported as “weak inhibitor” and half-maximal inhibition (IC50) was put at 33.4 µM. On CYP1A2, the “CYP1A2 inhibition grade (in words)” value is “moderate inhibitor” and the midpoint of inhibition, the IC50, lay at 6.51 µM.
